Laboratory results as given in US20100041089A1, “IMPROVED METHOD FOR DETECTING CHEMICAL […]” (priority 2006, published 2010).

Test system: yeast genes (expressed mRNA)
Assay: DNA chip measurement of expressed mRNA of yeast genes after culture with a toxic chemical substance
Assay type: cell-based, Saccharomyces cerevisiae S288C
Method in brief: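 Two-hour exposure of growing S. cerevisiae S288C (YPD, 25° C) to a sublethal toxicant preceded RNA isolation. Fluorescent cDNA was hybridized to a whole-genome array; a treated-to-untreated signal ratio of two or more was taken as significant.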

CCCCCCCCCCCCOS(=O)(=O)[O-].[Na+] [(18), Sodium lauryl sulfate]
The level of expressed mRNA in the presence of chemical substance/The level of expressed mRNA in the absence of chemical substance (yeast gene YJR054W, cultured two hours with substance): 0.9 | The level of expressed mRNA in the presence of chemical substance/The level of expressed mRNA in the absence of chemical substance (yeast gene YKL034W, cultured two hours with substance): 1.2 | The level of expressed mRNA in the presence of chemical substance/The level of expressed mRNA in the absence of chemical substance (yeast gene YKL071W, cultured two hours with substance): 0.9 | The level of expressed mRNA in the presence of chemical substance/The level of expressed mRNA in the absence of chemical substance (yeast gene YKL086W, cultured two hours with substance): 1.0 | The level of expressed mRNA in the presence of chemical substance/The level of expressed mRNA in the absence of chemical substance (yeast gene YKL151C, cultured two hours with substance): 1.8 | The level of expressed mRNA in the presence of chemical substance/The level of expressed mRNA in the absence of chemical substance (yeast gene YKL153W, cultured two hours with substance): 1.3 | The level of expressed mRNA in the presence of chemical substance/The level of expressed mRNA in the absence of chemical substance (yeast gene YKL195W, cultured two hours with substance): 1.6 | The level of expressed mRNA in the presence of chemical substance/The level of expressed mRNA in the absence of chemical substance (yeast gene YKR049C, cultured two hours with substance): 3.3 | The level of expressed mRNA in the presence of chemical substance/The level of expressed mRNA in the absence of chemical substance (yeast gene YKR091W, cultured two hours with substance): 1.3 | The level of expressed mRNA in the presence of chemical substance/The level of expressed mRNA in the absence of chemical substance (yeast gene YLL056C, cultured two hours with substance): 2.5 | The level of expressed mRNA in the presence of chemical substance/The level of expressed mRNA in the absence of chemical substance (yeast gene YLR008C, cultured two hours with substance): 4.9 | The level of expressed mRNA in the presence of chemical substance/The level of expressed mRNA in the absence of chemical substance (yeast gene YLR031W, cultured two hours with substance): 1.2 | The level of expressed mRNA in the presence of chemical substance/The level of expressed mRNA in the absence of chemical substance (yeast gene YLR046C (detoxification protein gene)): 5.4 | The level of expressed mRNA in the presence of chemical substance/The level of expressed mRNA in the absence of chemical substance (yeast gene YLR054C, cultured two hours with substance): 1.1 | The level of expressed mRNA in the presence of chemical substance/The level of expressed mRNA in the absence of chemical substance (yeast gene YLR149C, cultured two hours with substance): 3.0 | The level of expressed mRNA in the presence of chemical substance/The level of expressed mRNA in the absence of chemical substance (yeast gene YLR152C, cultured two hours with substance): 1.8 | The level of expressed mRNA in the presence of chemical substance/The level of expressed mRNA in the absence of chemical substance (yeast gene YLR194C, cultured two hours with substance): 0.9 | The level of expressed mRNA in the presence of chemical substance/The level of expressed mRNA in the absence of chemical substance (yeast gene YLR324W, cultured two hours with substance): 1.2 | The level of expressed mRNA in the presence of chemical substance/The level of expressed mRNA in the absence of chemical substance (yeast gene YLR327C): 5.3 | The level of expressed mRNA in the presence of chemical substance/The level of expressed mRNA in the absence of chemical substance (yeast gene YLR346C, cultured two hours with substance): 7.8 | The level of expressed mRNA in the presence of chemical substance/The level of expressed mRNA in the absence of chemical substance (yeast gene YLR350W, cultured two hours with substance): 1.1 | The level of expressed mRNA in the presence of chemical substance/The level of expressed mRNA in the absence of chemical substance (yeast gene YLR387C, cultured two hours with substance): 1.4 | The level of expressed mRNA in the presence of chemical substance/The level of expressed mRNA in the absence of chemical substance (yeast gene YLR460C, cultured two hours with substance): 1.1 | The level of expressed mRNA in the presence of chemical substance/The level of expressed mRNA in the absence of chemical substance (yeast gene YML117W, cultured two hours with substance): 1.3 | The level of expressed mRNA in the presence of chemical substance/The level of expressed mRNA in the absence of chemical substance (yeast gene YML128C, cultured two hours with substance): 5.5 | The level of expressed mRNA in the presence of chemical substance/The level of expressed mRNA in the absence of chemical substance (yeast gene YMR009W, cultured two hours with substance): 2.5 | The level of expressed mRNA in the presence of chemical substance/The level of expressed mRNA in the absence of chemical substance (yeast gene YMR067C, cultured two hours with substance): 1.0 | The level of expressed mRNA in the presence of chemical substance/The level of expressed mRNA in the absence of chemical substance (yeast gene YMR090W, cultured two hours with substance): 2.8 | The level of expressed mRNA in the presence of chemical substance/The level of expressed mRNA in the absence of chemical substance (yeast gene YMR095C, cultured two hours with substance): 1.0 | The level of expressed mRNA in the presence of chemical substance/The level of expressed mRNA in the absence of chemical substance (yeast gene YMR097C, cultured two hours with substance): 1.8 | The level of expressed mRNA in the presence of chemical substance/The level of expressed mRNA in the absence of chemical substance (yeast gene YMR102C, cultured two hours with substance): 2.8 | The level of expressed mRNA in the presence of chemical substance/The level of expressed mRNA in the absence of chemical substance (yeast gene YMR107W, cultured two hours with substance): 8.1 | The level of expressed mRNA in the presence of chemical substance/The level of expressed mRNA in the absence of chemical substance (yeast gene YMR180C, cultured two hours with substance): 1.7 | The level of expressed mRNA in the presence of chemical substance/The level of expressed mRNA in the absence of chemical substance (yeast gene YMR184W, cultured two hours with substance): 2.0 | The level of expressed mRNA in the presence of chemical substance/The level of expressed mRNA in the absence of chemical substance (yeast gene YMR191W, cultured two hours with substance): 2.1 | The level of expressed mRNA in the presence of chemical substance/The level of expressed mRNA in the absence of chemical substance (yeast gene YMR295C, cultured two hours with substance): 3.4 | The level of expressed mRNA in the presence of chemical substance/The level of expressed mRNA in the absence of chemical substance (yeast gene YMR316W, cultured two hours with substance): 6.4 | The level of expressed mRNA in the presence of chemical substance/The level of expressed mRNA in the absence of chemical substance (yeast gene YNL044W, cultured two hours with substance): 3.4 | The level of expressed mRNA in the presence of chemical substance/The level of expressed mRNA in the absence of chemical substance (yeast gene YNL074C, cultured two hours with substance): 1.3 | The level of expressed mRNA in the presence of chemical substance/The level of expressed mRNA in the absence of chemical substance (yeast gene YNL092W, cultured two hours with substance): 1.6 | The level of expressed mRNA in the presence of chemical substance/The level of expressed mRNA in the absence of chemical substance (yeast gene YNL115C, cultured two hours with substance): 2.6 | The level of expressed mRNA in the presence of chemical substance/The level of expressed mRNA in the absence of chemical substance (yeast gene YNL156C, cultured two hours with substance): 1.9 | The level of expressed mRNA in the presence of chemical substance/The level of expressed mRNA in the absence of chemical substance (yeast gene YNL190W, cultured two hours with substance): 0.8 | The level of expressed mRNA in the presence of chemical substance/The level of expressed mRNA in the absence of chemical substance (yeast gene YNL208W, cultured two hours with substance): 1.0 | The level of expressed mRNA in the presence of chemical substance/The level of expressed mRNA in the absence of chemical substance (yeast gene YNL211C, cultured two hours with substance): 6.8 | The level of expressed mRNA in the presence of chemical substance/The level of expressed mRNA in the absence of chemical substance (yeast gene YNL234W, cultured two hours with substance): 1.0 | The level of expressed mRNA in the presence of chemical substance/The level of expressed mRNA in the absence of chemical substance (yeast gene YNL281W, cultured two hours with substance): 0.9 | The level of expressed mRNA in the presence of chemical substance/The level of expressed mRNA in the absence of chemical substance (yeast gene YNL300W, cultured two hours with substance): 0.8 | The level of expressed mRNA in the presence of chemical substance/The level of expressed mRNA in the absence of chemical substance (yeast gene YNL305C, cultured two hours with substance): 1.6 | The level of expressed mRNA in the presence of chemical substance/The level of expressed mRNA in the absence of chemical substance (yeast gene YNR064C, cultured two hours with substance): 1.9 | The level of expressed mRNA in the presence of chemical substance/The level of expressed mRNA in the absence of chemical substance (yeast gene YNR068C, cultured two hours with substance): 1.0 | The level of expressed mRNA in the presence of chemical substance/The level of expressed mRNA in the absence of chemical substance (yeast gene YOL032W, cultured two hours with substance): 1.8 | The level of expressed mRNA in the presence of chemical substance/The level of expressed mRNA in the absence of chemical substance (yeast gene YOL036W, cultured two hours with substance): 0.9 | The level of expressed mRNA in the presence of chemical substance/The level of expressed mRNA in the absence of chemical substance (yeast gene YOL047C, cultured two hours with substance): 1.0 | The level of expressed mRNA in the presence of chemical substance/The level of expressed mRNA in the absence of chemical substance (yeast gene YOL071W, cultured two hours with substance): 2.0 | The level of expressed mRNA in the presence of chemical substance/The level of expressed mRNA in the absence of chemical substance (yeast gene YOL073C, cultured two hours with the chemical substance): 1.2 | The level of expressed mRNA in the presence of chemical substance/The level of expressed mRNA in the absence of chemical substance (yeast gene YOL082W, cultured two hours with substance): 2.5 | The level of expressed mRNA in the presence of chemical substance/The level of expressed mRNA in the absence of chemical substance (yeast gene YOL083W, cultured two hours with substance): 3.2 | The level of expressed mRNA in the presence of chemical substance/The level of expressed mRNA in the absence of chemical substance (yeast gene YOL117W, cultured two hours with substance): 1.4 | The level of expressed mRNA in the presence of chemical substance/The level of expressed mRNA in the absence of chemical substance (yeast gene YOL131W, cultured two hours with substance): 0.9 | The level of expressed mRNA in the presence of chemical substance/The level of expressed mRNA in the absence of chemical substance (yeast gene YOL150C, cultured two hours with substance): 2.2 | The level of expressed mRNA in the presence of chemical substance/The level of expressed mRNA in the absence of chemical substance (yeast gene YOL162W, cultured two hours with substance): 0.9 | The level of expressed mRNA in the presence of chemical substance/The level of expressed mRNA in the absence of chemical substance (yeast gene YOR019W, cultured two hours with substance): 2.8 | The level of expressed mRNA in the presence of chemical substance/The level of expressed mRNA in the absence of chemical substance (yeast gene YOR161C, cultured two hours with the chemical substance): 1.2 | The level of expressed mRNA in the presence of chemical substance/The level of expressed mRNA in the absence of chemical substance (yeast gene YOR173W, cultured two hours with substance): 3.8 | The level of expressed mRNA in the presence of chemical substance/The level of expressed mRNA in the absence of chemical substance (yeast gene YOR197W, cultured two hours with substance): 1.5 | The level of expressed mRNA in the presence of chemical substance/The level of expressed mRNA in the absence of chemical substance (yeast gene YOR248W, cultured two hours with substance): 0.8 | The level of expressed mRNA in the presence of chemical substance/The level of expressed mRNA in the absence of chemical substance (yeast gene YOR289W, cultured two hours with substance): 3.9 | The level of expressed mRNA in the presence of chemical substance/The level of expressed mRNA in the absence of chemical substance (yeast gene YPL052W, cultured two hours with substance): 1.5 | The level of expressed mRNA in the presence of chemical substance/The level of expressed mRNA in the absence of chemical substance (yeast gene YPL087W, cultured two hours with substance): 2.7 | The level of expressed mRNA in the presence of chemical substance/The level of expressed mRNA in the absence of chemical substance (yeast gene YPL196W, cultured two hours with substance): 2.3 | The level of expressed mRNA in the presence of chemical substance/The level of expressed mRNA in the absence of chemical substance (yeast gene YPL206C, cultured two hours with substance): 1.9 | The level of expressed mRNA in the presence of chemical substance/The level of expressed mRNA in the absence of chemical substance (yeast gene YPL222W, cultured two hours with substance): 0.9 | The level of expressed mRNA in the presence of chemical substance/The level of expressed mRNA in the absence of chemical substance (yeast gene YPL272C, cultured two hours with the chemical substance): 1.2 | The level of expressed mRNA in the presence of chemical substance/The level of expressed mRNA in the absence of chemical substance (yeast gene YPR023C, cultured two hours with substance): 1.1 | The level of expressed mRNA in the presence of chemical substance/The level of expressed mRNA in the absence of chemical substance (yeast gene YPR079W, cultured two hours with substance): 1.5 | The level of expressed mRNA in the presence of chemical substance/The level of expressed mRNA in the absence of chemical substance (yeast gene YPR127W, cultured two hours with substance): 1.2 | The level of expressed mRNA in the presence of chemical substance/The level of expressed mRNA in the absence of chemical substance (yeast gene YPR151C, cultured two hours with substance): 1.4
